Measured values: US7528252B2, “Derivatives of triazoly-imidazopyridine useful as ligands of the adenosine A2a receptor and their use as medicaments” (Sigma-Tau Industrie Farmaceutiche Riunite S.p.A., priority 2002, dated 2009)
Where two headings read alike, the source gives them in different places.

Experiments:
5-HT2C (h) = 5-HT2C (h) (Homo sapiens, UniProt P28335); experiment: Receptor binding study, 5-HT2C; conditions: mean values, n = 2, read-out: percent inhibition of control specific binding
β1 = β1 (Homo sapiens, UniProt P08588); experiment: Receptor binding study, β1; conditions: mean values, n = 2, read-out: percent inhibition of control specific binding
GABAb = GABAb (Homo sapiens, UniProt Q9UBS5); experiment: Receptor binding study, GABAb; conditions: mean values, n = 2, read-out: percent inhibition of control specific binding
Kainate = experiment: Receptor binding study, Kainate; conditions: 1 μM; mean values, n = 2
5-HT1A = 5-HT1A (Homo sapiens, UniProt P08908); experiment: Receptor binding study, 5-HT1A; conditions: mean values, n = 2, read-out: percent inhibition of control specific binding
5-HT transporter = 5-HT transporter (Homo sapiens, UniProt P31645); experiment: Receptor binding study, 5-HT transporter; conditions: read-out: percent inhibition of control specific binding
ADOtransporter = experiment: Receptor binding study, ADO transporter; conditions: 1 μM; mean values, n = 2
5-HT5A (h) = 5-HT5A (h) (Homo sapiens, UniProt P47898); experiment: Receptor binding study, 5-HT5A; conditions: mean values, n = 2, read-out: percent inhibition of control specific binding
M2 = M2 (Homo sapiens, UniProt P08172); experiment: Receptor binding study, M2; conditions: mean values, n = 2, read-out: percent inhibition of control specific binding
NE transporter = NE transporter (Homo sapiens, UniProt P23975); experiment: Receptor binding study, NE transporter; conditions: mean values, n = 2, read-out: percent inhibition of control specific binding
[1] = target: T1, human A3 subtype adenosine receptor (Homo sapiens, UniProt P0DMS8); experiment: Affinity towards the adenosine A3 receptor ([125I]AB-MECA binding, HEK-293 membranes); conditions: test compounds; read-out: A3 (h) Ki
T1 construct: expressed in transfected cells; host or cells: HEK-293

D4.4 (h) = D4.4 (h) (Homo sapiens, UniProt P21917); experiment: Receptor binding study, D4.4; conditions: mean values, n = 2, read-out: percent inhibition of control specific binding
H1 (central) = H1 (central) (Cavia porcellus, UniProt P31389); experiment: Receptor binding study, H1 (central); conditions: mean values, n = 2, read-out: percent inhibition of control specific binding
GABAa = experiment: Receptor binding study, GABAa; conditions: 1 μM; mean values, n = 2
human A2b receptor = target: T2, human A2b receptor (Homo sapiens, UniProt P29275); experiment: Affinity towards the adenosine A2b receptor ([3H]-DPCPX binding, HEK 293 membranes); conditions: read-out: A2b Ki (nM) ± sd
T2 construct: expressed in transfected cells; host or cells: HEK 293
T2 sequence (P29275 1-332): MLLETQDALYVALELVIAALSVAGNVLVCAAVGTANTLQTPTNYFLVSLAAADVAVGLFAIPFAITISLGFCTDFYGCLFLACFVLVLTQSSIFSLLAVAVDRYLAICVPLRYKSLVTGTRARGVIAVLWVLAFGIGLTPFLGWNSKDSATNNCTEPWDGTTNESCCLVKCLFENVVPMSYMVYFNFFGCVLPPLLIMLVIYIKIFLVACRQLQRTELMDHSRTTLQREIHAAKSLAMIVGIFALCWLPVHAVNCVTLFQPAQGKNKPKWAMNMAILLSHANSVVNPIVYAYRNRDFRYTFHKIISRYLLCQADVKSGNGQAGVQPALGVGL
Experimental: The interactive capacity of each product towards the adenosine A2b receptor was evaluated using membranes from HEK 293 cells stably expressing the human A2b receptor subtype exclusively.
Non-specific binding was measured in the presence of NECA (50 μM).
In binding studies for each compound, eight different concentrations (from 10^−5 M to 10^−12 M) were evaluated in order to obtain competition curves. By means of non-linear regression analysis of the competition curves, the IC50 values, which express the binding affinity of each product, were determined. Using the Cheng Prusoff equation (Ki=IC50/1+(L/Kd)) Ki values were calculated through which the affinity of each product studied, for the receptor investigated, is expressed.

5-HT2A = 5-HT2A (Homo sapiens, UniProt P28223); experiment: Receptor binding study, 5-HT2A; conditions: mean values, n = 2, read-out: percent inhibition of control specific binding
NMDA = experiment: Receptor binding study, NMDA; conditions: 1 μM; mean values, n = 2
α1(non-selective) = experiment: Receptor binding study, α1; conditions: 1 μM; mean values, n = 2
D2 = D2 (Homo sapiens, UniProt P14416); experiment: Receptor binding study, D2; conditions: mean values, n = 2, read-out: percent inhibition of control specific binding
M5 = target: T3, M5 (Homo sapiens, UniProt P08912); experiment: Receptor binding study, M5; conditions: 1 μM; mean values, n = 2; read-out: percent inhibition of control specific binding
T3 sequence (P08912 1-532): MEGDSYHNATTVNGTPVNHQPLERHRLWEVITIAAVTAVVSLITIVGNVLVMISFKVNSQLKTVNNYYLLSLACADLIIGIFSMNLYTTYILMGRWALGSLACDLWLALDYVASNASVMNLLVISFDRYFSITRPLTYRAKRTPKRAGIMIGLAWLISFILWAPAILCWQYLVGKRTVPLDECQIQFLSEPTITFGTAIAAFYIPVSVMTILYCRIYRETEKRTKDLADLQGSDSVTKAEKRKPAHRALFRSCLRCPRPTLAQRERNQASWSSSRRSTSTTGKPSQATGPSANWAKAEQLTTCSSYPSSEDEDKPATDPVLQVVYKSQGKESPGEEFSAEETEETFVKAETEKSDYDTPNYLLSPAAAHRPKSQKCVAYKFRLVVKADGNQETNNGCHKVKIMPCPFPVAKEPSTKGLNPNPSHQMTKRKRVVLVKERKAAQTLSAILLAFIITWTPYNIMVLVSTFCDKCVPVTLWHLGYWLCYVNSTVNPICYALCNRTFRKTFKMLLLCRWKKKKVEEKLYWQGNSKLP

M4 = M4 (Homo sapiens, UniProt P08173); experiment: Receptor binding study, M4; conditions: mean values, n = 2, read-out: percent inhibition of control specific binding
D5 (h) = D5 (h) (Homo sapiens, UniProt P21918); experiment: Receptor binding study, D5; conditions: mean values, n = 2, read-out: percent inhibition of control specific binding
D1 = D1 (Homo sapiens, UniProt P21728); experiment: Receptor binding study, D1; conditions: mean values, n = 2, read-out: percent inhibition of control specific binding
P2Y = experiment: Receptor binding study, P2Y; conditions: 1 μM; mean values, n = 2
AMPA = experiment: Receptor binding study, AMPA; conditions: 1 μM; mean values, n = 2
DA transporter = DA transporter (Homo sapiens, UniProt Q01959); experiment: Receptor binding study, DA transporter; conditions: mean values, n = 2, read-out: percent inhibition of control specific binding
Opiate (non-selective) = experiment: Receptor binding study, Opiate (non-selective); conditions: 1 μM; mean values, n = 2
5-HT4 = 5-HT4 (Homo sapiens, UniProt Q13639); experiment: Receptor binding study, 5-HT4; conditions: mean values, n = 2, read-out: percent inhibition of control specific binding
PCP = experiment: Receptor binding study, PCP; conditions: 1 μM; mean values, n = 2

GABAb, sequence (Q9UBS5 15-961 limits assumed): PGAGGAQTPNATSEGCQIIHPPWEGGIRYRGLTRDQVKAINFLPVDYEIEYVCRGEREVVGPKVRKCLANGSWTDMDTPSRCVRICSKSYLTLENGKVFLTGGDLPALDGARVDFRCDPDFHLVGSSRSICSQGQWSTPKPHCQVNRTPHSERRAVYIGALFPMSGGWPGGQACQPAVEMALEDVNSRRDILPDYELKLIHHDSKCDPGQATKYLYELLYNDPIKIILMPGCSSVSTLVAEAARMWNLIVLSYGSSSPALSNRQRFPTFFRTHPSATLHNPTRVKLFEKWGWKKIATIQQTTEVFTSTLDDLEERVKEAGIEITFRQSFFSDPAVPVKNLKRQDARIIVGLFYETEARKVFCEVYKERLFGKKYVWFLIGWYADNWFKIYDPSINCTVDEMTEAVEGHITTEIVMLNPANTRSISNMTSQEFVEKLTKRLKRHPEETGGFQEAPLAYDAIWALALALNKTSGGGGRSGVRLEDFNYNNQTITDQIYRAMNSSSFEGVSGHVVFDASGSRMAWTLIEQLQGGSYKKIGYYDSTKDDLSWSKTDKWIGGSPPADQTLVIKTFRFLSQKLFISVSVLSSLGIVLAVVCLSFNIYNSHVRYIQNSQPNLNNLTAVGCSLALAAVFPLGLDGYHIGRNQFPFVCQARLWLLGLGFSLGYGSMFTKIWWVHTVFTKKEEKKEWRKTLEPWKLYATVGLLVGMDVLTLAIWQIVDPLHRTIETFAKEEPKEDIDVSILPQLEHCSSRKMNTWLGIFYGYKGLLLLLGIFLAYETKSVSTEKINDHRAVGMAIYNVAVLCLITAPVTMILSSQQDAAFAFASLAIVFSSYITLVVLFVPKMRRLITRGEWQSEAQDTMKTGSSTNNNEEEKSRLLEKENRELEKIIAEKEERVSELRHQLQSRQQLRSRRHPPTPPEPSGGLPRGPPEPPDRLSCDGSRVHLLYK
GABAb, sequence (O75899 42-941 partner): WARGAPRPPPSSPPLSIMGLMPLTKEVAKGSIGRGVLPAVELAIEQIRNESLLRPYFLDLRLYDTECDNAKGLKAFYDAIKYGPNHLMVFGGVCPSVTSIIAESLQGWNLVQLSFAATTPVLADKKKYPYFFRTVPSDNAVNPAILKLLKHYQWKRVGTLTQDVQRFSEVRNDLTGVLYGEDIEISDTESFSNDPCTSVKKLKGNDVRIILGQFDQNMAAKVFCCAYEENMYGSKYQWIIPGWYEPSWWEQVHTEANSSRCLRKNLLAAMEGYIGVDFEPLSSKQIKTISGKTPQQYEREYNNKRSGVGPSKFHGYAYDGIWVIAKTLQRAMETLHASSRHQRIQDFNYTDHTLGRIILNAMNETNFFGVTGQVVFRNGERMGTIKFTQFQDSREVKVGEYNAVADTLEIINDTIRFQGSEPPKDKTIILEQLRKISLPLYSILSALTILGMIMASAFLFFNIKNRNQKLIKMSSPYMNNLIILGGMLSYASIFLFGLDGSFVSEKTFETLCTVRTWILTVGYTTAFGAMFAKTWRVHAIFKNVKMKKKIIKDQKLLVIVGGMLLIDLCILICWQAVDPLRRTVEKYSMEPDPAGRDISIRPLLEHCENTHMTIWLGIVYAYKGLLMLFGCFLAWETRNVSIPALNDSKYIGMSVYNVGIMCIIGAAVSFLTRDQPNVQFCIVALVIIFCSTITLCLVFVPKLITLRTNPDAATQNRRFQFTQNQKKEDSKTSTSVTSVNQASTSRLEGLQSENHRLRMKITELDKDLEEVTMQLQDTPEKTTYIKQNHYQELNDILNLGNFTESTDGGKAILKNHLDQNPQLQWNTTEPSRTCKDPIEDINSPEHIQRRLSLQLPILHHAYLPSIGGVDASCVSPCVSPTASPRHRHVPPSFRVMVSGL
H1 (central), sequence (P31389 whole entry): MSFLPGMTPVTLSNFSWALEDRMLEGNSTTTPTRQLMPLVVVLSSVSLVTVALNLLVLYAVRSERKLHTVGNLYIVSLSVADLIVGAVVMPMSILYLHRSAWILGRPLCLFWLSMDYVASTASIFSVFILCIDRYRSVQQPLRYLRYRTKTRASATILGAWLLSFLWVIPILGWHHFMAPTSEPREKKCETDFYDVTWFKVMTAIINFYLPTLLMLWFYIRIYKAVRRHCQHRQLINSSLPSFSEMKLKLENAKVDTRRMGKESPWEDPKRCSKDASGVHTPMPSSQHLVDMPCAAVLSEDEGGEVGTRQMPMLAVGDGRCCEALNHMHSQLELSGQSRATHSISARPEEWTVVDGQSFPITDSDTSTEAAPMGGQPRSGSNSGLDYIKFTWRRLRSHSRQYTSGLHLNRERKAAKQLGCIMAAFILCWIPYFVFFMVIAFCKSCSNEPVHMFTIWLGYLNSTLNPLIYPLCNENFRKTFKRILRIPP
5-HT2A, sequence (P28223 whole entry, species assumed): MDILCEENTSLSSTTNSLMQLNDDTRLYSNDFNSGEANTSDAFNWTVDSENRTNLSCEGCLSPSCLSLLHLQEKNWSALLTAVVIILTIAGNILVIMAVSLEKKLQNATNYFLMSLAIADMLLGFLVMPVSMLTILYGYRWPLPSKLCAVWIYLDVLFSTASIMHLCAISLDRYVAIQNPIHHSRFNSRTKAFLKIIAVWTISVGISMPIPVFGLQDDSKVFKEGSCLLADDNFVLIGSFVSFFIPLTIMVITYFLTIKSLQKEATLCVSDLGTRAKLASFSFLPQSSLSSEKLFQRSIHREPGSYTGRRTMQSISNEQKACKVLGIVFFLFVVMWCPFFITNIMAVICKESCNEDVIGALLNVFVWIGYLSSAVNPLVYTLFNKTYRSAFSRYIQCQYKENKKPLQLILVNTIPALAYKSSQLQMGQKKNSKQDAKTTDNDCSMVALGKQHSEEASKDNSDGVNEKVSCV
D5 (h), sequence (P21918 whole entry): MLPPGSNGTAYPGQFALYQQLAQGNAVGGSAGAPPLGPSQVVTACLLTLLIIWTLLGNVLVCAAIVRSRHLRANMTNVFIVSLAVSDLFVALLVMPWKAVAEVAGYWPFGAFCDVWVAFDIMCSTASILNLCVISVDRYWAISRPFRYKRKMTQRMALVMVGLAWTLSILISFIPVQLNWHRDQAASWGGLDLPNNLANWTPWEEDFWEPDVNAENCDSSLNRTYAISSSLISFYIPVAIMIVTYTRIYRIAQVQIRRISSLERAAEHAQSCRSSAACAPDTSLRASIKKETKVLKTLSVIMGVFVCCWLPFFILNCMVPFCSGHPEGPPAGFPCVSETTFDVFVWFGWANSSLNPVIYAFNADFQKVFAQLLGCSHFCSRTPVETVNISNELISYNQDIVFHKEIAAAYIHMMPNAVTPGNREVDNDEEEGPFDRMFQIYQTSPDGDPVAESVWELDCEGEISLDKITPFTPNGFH
5-HT5A (h), sequence (P47898 whole entry): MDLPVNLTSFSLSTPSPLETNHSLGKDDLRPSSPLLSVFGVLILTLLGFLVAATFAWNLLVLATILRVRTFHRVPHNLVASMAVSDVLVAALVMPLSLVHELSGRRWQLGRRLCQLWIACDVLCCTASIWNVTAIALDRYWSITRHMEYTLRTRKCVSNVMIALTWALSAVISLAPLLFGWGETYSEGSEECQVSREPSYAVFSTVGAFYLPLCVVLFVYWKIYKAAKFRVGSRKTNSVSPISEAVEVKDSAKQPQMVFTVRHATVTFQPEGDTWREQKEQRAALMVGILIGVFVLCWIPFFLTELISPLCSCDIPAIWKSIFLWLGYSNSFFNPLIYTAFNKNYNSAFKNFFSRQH
5-HT1A, sequence (P08908 whole entry, species assumed): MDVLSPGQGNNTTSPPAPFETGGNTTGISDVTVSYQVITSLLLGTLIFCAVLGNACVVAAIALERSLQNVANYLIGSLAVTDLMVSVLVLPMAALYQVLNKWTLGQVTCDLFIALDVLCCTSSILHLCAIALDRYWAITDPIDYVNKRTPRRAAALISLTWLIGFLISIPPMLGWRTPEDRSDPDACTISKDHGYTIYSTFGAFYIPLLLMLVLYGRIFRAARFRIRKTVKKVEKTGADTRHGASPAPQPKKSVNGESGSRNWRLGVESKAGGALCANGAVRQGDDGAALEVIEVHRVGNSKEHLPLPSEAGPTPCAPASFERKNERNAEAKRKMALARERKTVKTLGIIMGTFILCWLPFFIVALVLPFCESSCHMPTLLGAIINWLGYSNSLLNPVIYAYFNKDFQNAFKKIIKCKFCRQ
M2, sequence (P08172 whole entry): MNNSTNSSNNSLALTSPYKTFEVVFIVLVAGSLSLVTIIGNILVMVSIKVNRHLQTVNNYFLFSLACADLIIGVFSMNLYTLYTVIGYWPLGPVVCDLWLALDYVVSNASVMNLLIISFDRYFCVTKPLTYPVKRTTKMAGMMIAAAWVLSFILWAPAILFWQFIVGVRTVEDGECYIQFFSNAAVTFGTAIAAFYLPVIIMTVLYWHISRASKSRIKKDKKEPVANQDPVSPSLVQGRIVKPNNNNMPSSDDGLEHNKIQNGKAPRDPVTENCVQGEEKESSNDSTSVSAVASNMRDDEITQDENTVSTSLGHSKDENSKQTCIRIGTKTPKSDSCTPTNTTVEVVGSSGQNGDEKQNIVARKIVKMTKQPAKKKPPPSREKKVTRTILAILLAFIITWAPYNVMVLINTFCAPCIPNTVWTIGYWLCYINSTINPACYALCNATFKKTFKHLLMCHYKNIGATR
T1 sequence (P0DMS8 whole entry): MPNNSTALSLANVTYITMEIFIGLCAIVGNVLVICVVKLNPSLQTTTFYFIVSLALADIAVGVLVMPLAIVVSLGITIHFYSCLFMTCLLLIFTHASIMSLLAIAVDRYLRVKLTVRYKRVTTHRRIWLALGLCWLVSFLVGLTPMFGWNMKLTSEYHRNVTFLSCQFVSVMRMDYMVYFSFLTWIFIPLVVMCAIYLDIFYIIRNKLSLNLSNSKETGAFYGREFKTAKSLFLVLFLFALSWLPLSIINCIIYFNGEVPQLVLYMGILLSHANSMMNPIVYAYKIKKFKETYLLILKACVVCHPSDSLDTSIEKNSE

| Compound | inhibition at 1 µM (5-HT2C (h)) | inhibition at 1 µM (β1) | inhibition at 1 µM (GABAb) | percent inhibition of control specific binding (Kainate) | inhibition at 1 µM (5-HT1A) | percent inhibition of control specific binding (ADOtransporter) | inhibition at 1 µM (5-HT5A (h)) | inhibition at 1 µM (M2) | inhibition at 1 µM (NE transporter) | Ki [1] | inhibition at 1 µM (D4.4 (h)) | inhibition at 1 µM (H1 (central)) | percent inhibition of control specific binding (GABAa) | Ki (human A2b receptor) | inhibition at 1 µM (5-HT2A) | percent inhibition of control specific binding (NMDA) | percent inhibition of control specific binding (α1(non-selective)) | inhibition at 1 µM (D2) | inhibition at 1 µM (M5) | inhibition at 1 µM (M4) | also measured |
| --- | --- | --- | --- | --- | --- | --- | --- | --- | --- | --- | --- | --- | --- | --- | --- | --- | --- | --- | --- | --- | --- |
| CCCCCc1nc(N)c2nc(-n3nccn3)n(C)c2n1 [ST 2097, 9-methyl-2-pentyl-8-(2H-1,2,3-triazol-2-yl)-9H-purine-6-ylamine] | < 10% | < 10% | < 10% | — (The symbol — indicates an inhibition of less than 10%.) | < 10% | 34% | < 10% | < 10% | < 10% | 0.519 µM | < 10% | < 10% | — (The symbol — indicates an inhibition of less than 10%.) | 153 ± 13 nM | < 10% | — (The symbol — indicates an inhibition of less than 10%.) | — (The symbol — indicates an inhibition of less than 10%.) | < 10% | < 10% | < 10% | inhibition at 1 µM (5-HT transporter): 13%; inhibition at 1 µM (D5 (h)): < 10%; inhibition at 1 µM (D1): < 10%; percent inhibition of control specific binding (P2Y): — (The symbol — indicates an inhibition of less than 10%.); percent inhibition of control specific binding (AMPA): — (The symbol — indicates an inhibition of less than 10%.); inhibition at 1 µM (DA transporter): < 10%; percent inhibition of control specific binding (Opiate (non-selective)): — (The symbol — indicates an inhibition of less than 10%.); inhibition at 1 µM (5-HT4): < 10%; percent inhibition of control specific binding (PCP): — (The symbol — indicates an inhibition of less than 10%.) |
| CCCCc1nc(N)c2nc(-n3nccn3)n(C)c2n1 [ST 1535, 2-butyl-9-methyl-8-(2H-1,2,3-triazol-2-yl)-9H-purine-6-ylamine] | < 10% | < 10% | < 10% | — (The symbol — indicates an inhibition of less than 10%.) | < 10% | 24% | < 10% | < 10% | < 10% | 1.58 µM | < 10% | < 10% | — (The symbol — indicates an inhibition of less than 10%.) | 627 ± 45 nM | < 10% | — (The symbol — indicates an inhibition of less than 10%.) | — (The symbol — indicates an inhibition of less than 10%.) | < 10% | < 10% | < 10% | inhibition at 1 µM (5-HT transporter; 1 μM, mean values, n = 2, class symbol): < 10%; inhibition at 1 µM (D5 (h)): < 10%; inhibition at 1 µM (D1): < 10%; percent inhibition of control specific binding (P2Y): — (The symbol — indicates an inhibition of less than 10%.); percent inhibition of control specific binding (AMPA): — (The symbol — indicates an inhibition of less than 10%.); inhibition at 1 µM (DA transporter): < 10%; percent inhibition of control specific binding (Opiate (non-selective)): — (The symbol — indicates an inhibition of less than 10%.); inhibition at 1 µM (5-HT4): < 10%; percent inhibition of control specific binding (PCP): — (The symbol — indicates an inhibition of less than 10%.) |
